Where a SMILES comes first, the peptide text is derived from it.
Assays:
Bcl‐2‐ΔTM [1] = target: Bcl‐2‐ΔTM (UniProt P10415); assay: Isothermal titration calorimetry (ITC); type: binding; conditions: 25°C; for n (number of sites): 20 μM Bcl‐2‐ΔTM in cell, 200 μM peptide injected; for n (number of sites) / TΔS / ΔH: binding buffer pH 8.0, ± SD, SD; for ΔG: binding buffer pH 8.0, calculated as ΔH − TΔS
Method: All ITC experiments were performed in triplicate using a MicroCal 200 ITC instrument (Malvern Panalytical) at 25°C. To initiate ITC experiments, the sample cell was filled with 250 μL of binding buffer supplemented with 20 μM Bcl‐2‐ΔTM. Acetylated peptides were then diluted to a final concentration of 200 μM in binding buffer and injected into the sample cell at 2 μL volumes using a 6 s injection time and a 150 s delay between each injection. Data analysis was performed using MicroCal Origin software v7.0. Non‐linear curves were fit using Equation (3) adapted from the instrument manual: (3) ΔQ=nMtΔHVo/21+Xt/nMt+1/nKaMt−1+Xt/nMt+1/nKaMt^2−4Xt/nMt where, ΔQ is the heat content released or absorbed by each injection. ΔH is the enthalpy change of ligand binding and M t is bulk concentration of Bcl‐2‐ΔTM. V o is the cell volume of Bcl‐2‐ΔTM and K a is the affinity constant. X t is bulk concentration of peptide and n is the number of sites occupied by the peptide. Dissociation constants (K d) for all peptides were calculated by taking the reciprocal of the K a .
ΔG values were calculated from the Gibbs free energy Equation (4) using Origin‐fitted values of ΔH and program‐calculated values of ΔS. (4) ΔG=ΔΗ−ΤΔS

Bcl‐2‐ΔTM [2] = target: Bcl‐2‐ΔTM (UniProt P10415); assay: FP competitive binding assay; conditions: fluorescence polarization; 100 nM Bcl‐2‐ΔTM and 25 nM ^FluBax‐BH3^ΔB pre-incubated 1 h, competitor 100 μM to 2.3 pM, further 1 h, ambient temperature; binding buffer 50 mM Tris, 100 mM NaCl, pH 8.0; triplicate; read-out: IC50 (competition with ^FluBax‐BH3^ΔB for Bcl‐2‐ΔTM)
Method: FP competitive binding assays were performed in triplicate on black 384‐well plates (#3575, Corning, Corning, NY) using a SpectraMax M5e multi‐mode plate reader (Molecular Devices, Sunnyvale, CA). For these experiments, 100 nM Bcl‐2‐ΔTM and 25 nM ^FluBax‐BH3^ΔB were initially co‐incubated for 1 h in binding buffer at ambient temperature in the dark. Following pre‐incubation, serial dilutions of acetylated peptides (100 μM to 2.3 pM) were added, and the solutions were allowed to incubate for an additional 1 h at ambient temperature in the dark. This incubation time was deemed sufficient for binding reactions to reach equilibrium, as judged by an absence of change in the observed polarization value of the sample with the lowest protein concentration over 4 h (data not shown). Following incubation, the fluorescence polarization of each sample was measured using an excitation wavelength of 498 nm and an emission wavelength of 525 nm. An average of 100 reads were recorded for each well. […]

Bcl‐2‐ΔTM, sequence (P10415 whole entry, stated change not applied): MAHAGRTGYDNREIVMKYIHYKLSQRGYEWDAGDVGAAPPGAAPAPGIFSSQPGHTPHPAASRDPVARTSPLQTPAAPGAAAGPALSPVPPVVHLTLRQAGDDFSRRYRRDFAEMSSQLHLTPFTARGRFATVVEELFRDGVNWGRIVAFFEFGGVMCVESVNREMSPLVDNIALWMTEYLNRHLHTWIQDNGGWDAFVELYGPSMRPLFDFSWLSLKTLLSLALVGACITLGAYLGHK

Structure (SMILES) | n (number of sites) (Bcl‐2‐ΔTM [1]; 3 trials) | ΔG (Bcl‐2‐ΔTM [1]; ± SD, 3 trials) [kcal/mol] | TΔS (Bcl‐2‐ΔTM [1]; 3 trials) [kcal/mol] | ΔH (Bcl‐2‐ΔTM [1]; 3 trials) [kcal/mol] | Kd (Bcl‐2‐ΔTM [1]; binding buffer pH 8.0, reciprocal of K a, ± SD, 3 trials) [nM] | difference in ΔG, complex more stable than that of ^AcScTx‐Bax^ΔΔΔ (Bcl‐2‐ΔTM [1]; versus ^AcScTx‐Bax^ΔΔΔ) [kcal/mol] | IC50 (Bcl‐2‐ΔTM [2]) [nM] | enthalpic contribution less favorable than with ^AcBax‐BH3^ΔB (Bcl‐2‐ΔTM [1]; versus ^AcBax‐BH3^ΔB) [kcal/mol] | difference in ΔG, binds more favorably than ^AcScTx‐Bax^ΔΔ,8–26 (Bcl‐2‐ΔTM [1]; versus ^AcScTx‐Bax^ΔΔ,8–26) [kcal/mol]
CC[C@H](NC(=O)[C@H](CO)NC(=O)CNC(C)=O)C(=O)N[C@@H](CCCCN)C(=O)N[C@@H](CCCCN)C(=O)N[C@@H](CC(C)C)C(=O)N[C@@H](CO)C(=O)N[C@H]1CSSC[C@@H](C(=O)N[C@@H](CCC(=O)O)C(=O)N[C@@H](CC)C(=O)N[C@H](C(=O)N[C@@H](CCCCN)C(=O)N[C@@H](Cc2c[nH]cn2)C(N)=O)C(C)C)NC(=O)[C@H](CCCCN)NC(=O)[C@H](CC(=O)O)NC(=O)CNC(=O)[C@H]([C@@H](C)CC)NC(=O)[C@H](CC)NC(=O)[C@H](CCCCN)NC(=O)CNC(=O)[C@H](CC(C)C)NC(=O)[C@H](CC(C)C)NC(=O)CNC(=O)[C@H](CC(=O)O)NC(=O)CNC(=O)[C@H]([C@@H](C)CC)NC(=O)[C@H](CC)NC(=O)[C@H](CCCCN)NC(=O)[C@H](CC(C)C)NC(=O)[C@H](CC)NC1=O [^AcScTx‐Bax^ΔΔ,8–26] (HELM PEPTIDE1{[ac].G.S.[Abu].K.K.L.S.C.[Abu].L.K.[Abu].I.G.D.G.L.L.G.K.[Abu].I.G.D.K.C.E.[Abu].V.K.H.[am]}$PEPTIDE1,PEPTIDE1,9:R3-27:R3$$$V2.0) | 1.13 ± 0.08 | -7.51 ± 0.12 | 1.63 ± 0.03 | -5.88 ± 0.15 | – | – | – | – | –
CC[C@H](NC(=O)[C@H](CCC(=O)O)NC(=O)[C@H](CO)NC(=O)[C@H](CC(C)C)NC(=O)[C@H](CCCCN)NC(=O)[C@H](CCCCN)NC(=O)[C@@H](NC(=O)[C@H](CO)NC(=O)CNC(C)=O)[C@@H](C)O)C(=O)N[C@@H](CC(C)C)C(=O)N[C@@H](CCCCN)C(=O)N[C@@H](CCCNC(=N)N)C(=O)N[C@H](C(=O)NCC(=O)N[C@@H](CC(=O)O)C(=O)N[C@@H](CCC(=O)O)C(=O)N[C@@H](CC(C)C)C(=O)N[C@@H](CC(=O)O)C(=O)N[C@@H](CO)C(=O)N[C@@H](CC(N)=O)C(=O)N[C@@H](CCSC)C(N)=O)[C@@H](C)CC [^AcBax‐BH3^ΔB, reference compound] (HELM PEPTIDE1{[ac].G.S.T.K.K.L.S.E.[Abu].L.K.R.I.G.D.E.L.D.S.N.M.[am]}$$$$V2.0) | 0.93 ± 0.05 | -10.02 ± 0.89 | 4.58 ± 0.20 | -5.43 ± 0.73 | 191 ± 27.5 | 1.53 | 141 | – | –
CC[C@H](NC(=O)[C@H](CO)NC(=O)CNC(C)=O)C(=O)N[C@@H](CCCCN)C(=O)N[C@@H](CCCCN)C(=O)N[C@@H](CC(C)C)C(=O)N[C@@H](CO)C(=O)N[C@@H](CC)C(=O)N[C@@H](CC)C(=O)N[C@@H](CC(C)C)C(=O)N[C@@H](CCCCN)C(=O)N[C@@H](CC)C(=O)N[C@H](C(=O)NCC(=O)N[C@@H](CC(=O)O)C(=O)NCC(=O)N[C@@H](CC(C)C)C(=O)N[C@@H](CC(C)C)C(=O)NCC(=O)N[C@@H](CCCCN)C(=O)N[C@@H](CC)C(=O)N[C@H](C(=O)NCC(=O)N[C@@H](CC(=O)O)C(=O)N[C@@H](CCCCN)C(=O)N[C@@H](CC)C(=O)N[C@@H](CCC(=O)O)C(=O)N[C@@H](CC)C(=O)N[C@H](C(=O)N[C@@H](CCCCN)C(=O)N[C@@H](Cc1c[nH]cn1)C(N)=O)C(C)C)[C@@H](C)CC)[C@@H](C)CC [^AcScTx‐Bax^ΔΔΔ] (HELM PEPTIDE1{[ac].G.S.[Abu].K.K.L.S.[Abu].[Abu].L.K.[Abu].I.G.D.G.L.L.G.K.[Abu].I.G.D.K.[Abu].E.[Abu].V.K.H.[am]}$$$$V2.0) | 0.90 ± 0.09 | -8.49 ± 0.33 | 4.64 ± 0.11 | -3.85 ± 0.33 | – | – | – | 1.58 | ~1
